Test results as given in US6388122B1, “Tryptase inhibitor and novel guanidino derivatives” (Ono Pharmaceutical Co., Ltd., priority 1996, dated 2002).
Counter-ions that a name gives are not always drawn.

Tests used:
[1] = biological target: T1, Tryptase purified from the human lungs; test: Tryptase inhibitory activity (Boc-Phe-Ser-Arg-MCA fluorescence); assay type: biochemical; settings: human lung tryptase, pH 7.5, 37° C., 5 minutes incubation, substrate Boc-Phe-Ser-Arg-MCA
T1 construct: Tryptase was purified from the human lungs in accordance with the method of T. J. Smithetal. described in J. Biol. Chem., 259, 11046 (1984)
Description: Tryptase was purified from the human lungs in accordance with the method of T. J. Smithetal. described in J. Biol. Chem., 259, 11046 (1984). The enzyme purified in the concentration of 25.7 U/ml was diluted 10 times with 100 mM Tris/hydrochloride buffer (pH 7.5) at use. The enzyme solution prepared above (5 μl) was mixed with 100 mM Tris/hydrochloride buffer (pH 7.5, 500 μl) and the aqueous solution of the subject compound in various concentrations or water (5 μl), and the resulting mixture was incubated at 37° C. for 5 minutes. To the reaction mixture was added 20 mM Boc-Phe-Ser-Arg-MCA (2.5 μl), and elevation in fluorescence for a minute was determined at Ex=370 nm, Em=460 nm. The elevation in fluorescence in the absence of the subject compound was defined as 100% to obtain the percentage (%) in the existence of the sample compound and calculate the value of IC50.

[2] = system: carbon tetrachloride-induced rat chronic hepatopathy; test: Effect on carbon tetrachloride-induced rat chronic hepatopathy; assay type: in vivo; settings: 3 mg/kg oral once a day for 8 weeks starting 5 weeks after carbon tetrachloride, liver taken at 12 weeks
Description: Carbon tetrachloride (1.5 mg/kg) was repeatedly given to rats by subctaneous administration twice a week for 12 weeks to induce impairment. The liver was taken out 12 weeks after inducing, the effect on hepatic fibrogenesis was evaluated using the hepatic […] content as the indication. The aqueous solution of the subject compound in concentration of 3 mg/kg was repeatedly given by oral administeration once a day for 8 weeks, initially administered 5 weeks after the administration of carbon tetrachloride.

[3] = Toxicity (LD50, intravenous, male mice); settings: mouse, in vivo, intravenously administered to male mice
Excerpt: Extremely low toxicity has been confirmed in each of the active ingredients and nontoxic salts and nontoxic acid addition salts thereof encompassed in the present invention. […] Accordingly, any of the active substances encompassed in the present invention can be considered to be adequately safe and suitable for use as pharmaceuticals.

[4] = biological target: T2, trypsin (derived from bovine pancreas) (Bos taurus, UniProt P00760); test: Trypsin inhibitory activity (BAPNA absorbance); assay type: biochemical; settings: substrate BAPNA, pH 8.0, 30° C.
T2 construct: trypsin (derived from bovine pancreas); from tissue; host or cells: bovine pancreas
T2 sequence (P00760 24-246): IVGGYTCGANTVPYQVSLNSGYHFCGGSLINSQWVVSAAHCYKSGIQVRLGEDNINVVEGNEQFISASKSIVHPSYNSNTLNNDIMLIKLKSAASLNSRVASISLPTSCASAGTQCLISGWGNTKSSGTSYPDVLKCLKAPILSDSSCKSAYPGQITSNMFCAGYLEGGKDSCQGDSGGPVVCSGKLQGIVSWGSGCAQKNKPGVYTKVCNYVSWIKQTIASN
Description: To 0.2 M HEPES/sodium hydroxide buffer (pH 8.0, 100 μl) and distilled water (640 μl) were added the subject compound in various concentrations or water (10 μl) and a 80 mU/ml trypsin (derived from bovine pancreas) solution (50 μl), and the resulting mixture was allowed to preincubation at 30° C. for a minute. To the resulting reaction mixture, 2.5 mM BAPNA (200 μl) was added, incubation was made at 30° C., and the absorbance at 405 nm was determined. The absorbance in the absence of the subject compound was defined as 100% to obtain the percentage (%) in the existence of the sample compound and calculate the value of IC50.

[5] = biological target: T3, PLA2 (derived from pig pancreas) (Sus scrofa, UniProt P00592); test: PLA2 inhibitory activity (10PY-PC fluorescence); assay type: biochemical; settings: pig pancreas PLA2, substrate 10PY-PC, pH 7.5
T3 construct: PLA2 (derived from pig pancreas); from tissue; host or cells: pig pancreas
T3 sequence (P00592 23-146): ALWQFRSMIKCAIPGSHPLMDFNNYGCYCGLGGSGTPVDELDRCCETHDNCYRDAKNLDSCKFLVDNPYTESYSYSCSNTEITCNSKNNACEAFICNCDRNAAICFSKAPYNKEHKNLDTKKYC
Description: A reaction mixture was prepared which contained 50 mM Tris/hydrochloride buffer (pH 7.5, 874 μl: 100 mM sodium chloride and 1 mM EDTA contained), 1 M calcium chloride (6 μl), 1% bovine serum albumin (10 μl) and 2.5 mM 10PY-PC (10 μl). To the reaction mixture were added the subject compound in various concentrations or water (50 μl) and a 10 mU/ml PLA2 (derived from pig pancreas) solution (50 μl), and the intensity of fluorescence was determined at Ex=345 nm and Em=396 nm. The intensity of fluorescence in the absence of the subject compound was defined as 100% to obtain the percentage (%) In the existence of the sample compound and calculate the value of IC50.

[6] = system: bleomycin-induced rat pulmonary fibrosis; test: Effect on bleomycin-induced rat pulmonary fibrosis; assay type: in vivo; settings: 10 mg/kg oral once a day for 14 days, lungs taken 15 days after bleomycin
Description: Under anesthetization with pentobarbital, bleomycin hydrochloride (0.9 mg/0.3 ml) was given to rats by endotracheal administration to induce impairment. The lungs were taken out 15 days after inducing, the effect on pulmonary fibrogenesis was evaluated using the pulmonary […] content as the indication. The aqueous solution of the subject compound In concentration of 10 mg/kg was repeatedly given by oral administeration once a day for 14 days, initially administered 10 hours after the administration of bleomycin.

IC50 [1] [nM] | SMILES | other results
4.33 | CN(C)C(=O)COC(=O)Cc1ccc(OC(=O)c2ccc(NC(=N)N)cc2)cc1 [Methanesulfonate of compound 2, N,N-ddimethylcarbamoylmethyl p-(p-guanidinobenzoyloxy)phenylacetate] | 
192 | N=C(N)Nc1ccc(OC(=O)c2cccc(S(N)(=O)=O)c2)cc1 [Methanesulfonate of compound 15, m-(p-guanidinophenoxycarbonyl)benzenesulfonamide] | 
11.2 | CCOC(=O)CN(C(=O)c1ccc(C(=O)Oc2ccc(NC(=N)N)cc2)cc1)c1ccccc1 [Methanesulfonate of compound 14, p-(p-guanidinophenoxycarbonyl)benzoic acid N-phenyl-N-ethoxycarbonylmethylamide] | 
1.38 | CCOC(=O)CCN(CCCOC)C(=O)/C(C)=C/c1ccc(C(=O)Oc2ccc(C(=N)N)cc2)cc1 [Hydrochloride of compound 25, p-(p-amidinophenoxycarbonyl)-α-methylcinnamic acid N-2-ethoxycarbonylethyl-N-3-methoxypropylamide] | 
0.21 | N=C(N)c1ccc(OC(=O)c2ccc(/C=C/C(=O)N3CCN(Cc4ccccc4)CC3)cc2)cc1 [Hydrochloride of compound 19-2, p-(p-amidinophenoxycarbonyl)cinnamic acid N-(4-phenyl-methyl)piperadinylamide] | 
0.24 | CCCCCCN(CC(=O)OCC)C(=O)/C(C)=C/c1ccc(C(=O)Oc2ccc(C(=N)N)cc2)cc1 [Acetate of compound 22, p-(p-amidlnophenoxycarbonyl)-α-methylcinnamic acid N-ethoxycarbonylmethyl-N-hexylamide] | 
 | CCOC(=O)C1CCCCN1C(=O)/C=C/c1ccc(C(=O)Oc2ccc(NC(=N)N)cc2)cc1 (stereo not shown) [Acetate of compound 7, p-(p-Guanidinophenoxycarbonyl)cinnamic Acid N-(2-ethoxcarbonyl)piperidlnylamide acetate] | IC50 [4]: 180 nM
1.14 | CCOC(=O)CC(CC(=O)OCC)N(C(=O)/C(C)=C/c1ccc(C(=O)Oc2ccc(C(=N)N)cc2)cc1)C1CCCCC1 [Acetate of compound 24] | 
 | CCOC(=O)[C@@H]1CCCN1C(=O)/C=C/c1ccc(C(=O)Oc2ccc(NC(=N)N)cc2)cc1 [Acetate of compound 10, p-(p-Guanidinophenoxycarbonyl)cinnamic Acid N-(2-(S)-ethoxycarbonyl)pyrrolidinylamide Acetate] | IC50 [4]: 180 nM
30 | CCOC(=O)c1ccc(OC(=O)CCCCCNC(=N)N)cc1 [Methanesulfonate of compound 1, p-ethoxycarbonylphenyl 6-guanidinohexanoate] | 
 | CCOC(=O)CN(C(=O)/C=C/c1ccc(C(=O)Oc2ccc(NC(=N)N)cc2)cc1)c1ccccc1 [Hydrochloride of compound 5, p-(p-Guanidinophenoxycarbonyl)cinnamic Acid N-phenyl-N-ethoxycarbonylmethylamide Hydrochloride] | IC50 [5]: 8 µM
 | CCOC(=O)CN(C(=O)/C(C)=C/c1ccc(C(=O)Oc2ccc(NC(=N)N)cc2)cc1)c1ccccc1 [Hydrochloride of compound 6, p-(p-Guanidinophenoxycarbony) -α-methylcinnamic Acid N-phenyl-N-ethoxycarbonylmethylamide Hydrochloride] | IC50 [5]: 5 µM; IC50 [4]: 110 nM
12.6 | C=CCN(CC(=O)O)C(=O)/C(C)=C/c1ccc(C(=O)Oc2ccc(C(=N)N)cc2)cc1 [Methanesulfonate of compound 17, p-(p-amidinophenoxycarbonyl)-α-methylcinnamic acid N-allyl-N-carboxylmethylamide] | Amount of pulmonary Hydroxypurine [6]: 3.774 ± 0.504 μg/lung; Inhibition ratio (pulmonary hydroxypurine) [6]: 40.6%
5 | C=CCN(CC(=O)OCC)C(=O)/C(C)=C/c1ccc(C(=O)Oc2ccc(NC(=N)N)cc2)cc1 [Acetate of compound 13, p-(p-Guanidinophenoxycarbonyl)-α-methylcinnamic Acid N-allyl-N-ethoxycarbonylmethylamide Acetate] | IC50 [4]: 160 nM
0.46 | C=CCN(CC(=O)OCC)C(=O)/C(C)=C/c1ccc(C(=O)Oc2ccc(C(=N)N)cc2C(=O)OC)cc1 [Acetate of compound 23, p-(4-amidino-2-methoxycarbonylphenoxycarbonyl)-α-methylcinnamic acid N-allyl-N-ethoxycarbonylmethylamide] | 
2.39 | C#CCN(CC(=O)OCC)C(=O)/C(C)=C/c1ccc(C(=O)Oc2ccc(C(=N)N)cc2)cc1 [Acetate of compound 18, p-(p-amidinophenoxycarbonyl)-α-methylcinnamic acid N-propargyl-N-ethoxycarbonylmethylamide] | 
52.9 | N=C(N)Nc1ccc(C(=O)Oc2ccc(CC(=O)O)cc2)cc1 [Methanesulfonate of compound 3, p-(p-guanidinobenzoyloxy)phenylacetic acid] | 

SMILES | IC50 [1] [nM] | other results
C=CCN(CC(=O)OCC)C(=O)/C(C)=C/c1ccc(C(=O)Oc2ccc(C(=N)N)cc2)cc1 [Methanesulfonate of compound 16, p-(p-amidinophenoxycarbonyl)-α-methylcinnamic acid N-allyl-N-ethoxycarbonylmethylamide] | 1.4 | Amount of hepatic Hydroxypurine [2]: 896.5 ± 686.7 μg/liver; Inhibition ratio (hepatic hydroxypurine) [2]: 58.1%; LD50 [3]: 117 mg/kg
